# Laboratory results reported in ChEMBL document CHEMBL4828717, “Synthetic cajaninstilbene acid derivatives eradicate methicillin-resistant Staphylococcus aureus persisters and biofilms” (Eur J Med Chem, 2021).
# Calls of active or inactive are those of the source. The rule behind the calls is not given here.
# Key:
# Cell membrane [1] = experiment: Induction of cell membrane permeabilization in methicillin resistant Staphylococcus aureus ATCC 43300 assessed as fluorescence intensity at 2 times MIC measured after 30 mins by propidium iodide staining based fluorescence assay
# Staphylococcus aureus [2] = experiment: Synergistic antimicrobial activity against Staphylococcus aureus ATCC 43300 assessed as FICI at 0.25 times MIC after 24 hrs in presence of 128 ug/ml piperacillin by checkerboard assay; assay type: functional
# Staphylococcus aureus [3] = experiment: Synergistic antimicrobial activity against Staphylococcus aureus ATCC 43300 assessed as FICI at 2 times MIC after 24 hrs in presence of 64 ug/ml kanamycin by checkerboard assay; assay type: functional
# Cell membrane [4] = experiment: Induction of cell membrane damage in methicillin resistant Staphylococcus aureus ATCC 43300 assessed as increase in ATP leakage […] at 1 times MIC measured every 30 mins for 6 hrs by Bactiter-glo assay
# Staphylococcus aureus [5] = experiment: Antimicrobial activity against methicillin-resistant Staphylococcus aureus ATCC 43300 infected in abscesses mouse model assessed as increase in mouse survival at 50 to 200 mg/kg, sc administered every 24 hrs for 4 days; assay type: functional, organism-based; settings: dose 50-200 mg/kg
# Staphylococcus aureus [6] = experiment: Antibacterial activity against methicillin resistant Staphylococcus aureus ATCC48073 assessed as reduction in microbial growth after 16 to 18 hrs by microbroth dilution method; assay type: functional; settings: time 16-18 hrs
# Staphylococcus aureus [7] = experiment: Antibacterial activity against methicillin resistant Staphylococcus aureus ATCC515992 assessed as reduction in microbial growth after 16 to 18 hrs by microbroth dilution method; assay type: functional; settings: time 16-18 hrs
# Cell membrane [8] = experiment: Induction of cell membrane depolarization in methicillin resistant Staphylococcus aureus ATCC 43300 measured after 60 mins by DiOC5 dye based flow analyzer
# Staphylococcus aureus [9] = experiment: Antibacterial activity against methicillin resistant Staphylococcus aureus ATCC 52056 assessed as reduction in microbial growth after 16 to 18 hrs by microbroth dilution method; assay type: functional; settings: time 16-18 hrs
# Staphylococcus aureus [10] = experiment: Antibacterial activity against methicillin resistant Staphylococcus aureus ATCC49800 assessed as reduction in microbial growth after 16 to 18 hrs by microbroth dilution method; assay type: functional; settings: time 16-18 hrs
# Cell membrane [11] = experiment: Induction of cell membrane damage in Staphylococcus aureus ATCC 43300 at 0.5 times MIC after 90 mins by confocal laser scanning microscopy analysis; assay type: subcellular
# Staphylococcus aureus [12] = experiment: Synergistic antimicrobial activity against Staphylococcus aureus ATCC 43300 assessed as FICI at 0.5 times MIC after 24 hrs in presence of 64 ug/ml piperacillin by checkerboard assay; assay type: functional
# Staphylococcus aureus [13] = experiment: Antibacterial activity against methicillin resistant Staphylococcus aureus ATCC49008 assessed as reduction in microbial growth after 16 to 18 hrs by microbroth dilution method; assay type: functional; settings: time 16-18 hrs
# Cell membrane [14] = experiment: Induction of cell membrane damage in Staphylococcus aureus ATCC 43300 at 1 times MIC after 90 mins by confocal laser scanning microscopy analysis
# L02 = experiment: Cytotoxicity against human L02 cells assessed as cell viability at 10 ug/ml measured after 24 hrs by MTT assay; assay type: cell-based; settings: l02, 24 h, dose 10 µg/ml
# Cell membrane [15] = experiment: Induction of cell membrane damage in methicillin resistant Staphylococcus aureus ATCC 43300 assessed as increase in ATP leakage […] at 4 times MIC measured every 30 mins for 6 hrs by Bactiter-glo assay
# Staphylococcus aureus [16] = experiment: Synergistic antimicrobial activity against Staphylococcus aureus ATCC 43300 assessed as FICI at 0.5 times MIC after 24 hrs in presence of 128 ug/ml kanamycin by checkerboard assay; assay type: functional
# Staphylococcus aureus [17] = experiment: Antibacterial activity against methicillin resistant Staphylococcus aureus ATCC 43300 persisters assessed as reduction in colony formation at 8 ug/ml incubated for 8 hrs by colony counting method; assay type: functional, organism-based; settings: dose 8.0 µg/ml
# Staphylococcus aureus [18] = experiment: Synergistic antimicrobial activity against Staphylococcus aureus ATCC 43300 assessed as FICI at 2 times MIC after 24 hrs in presence of 4 ug/ml gentamicin by checkerboard assay; assay type: functional
# Enterococcus faecalis = experiment: Antibacterial activity against Enterococcus faecalis ATCC29212 assessed as reduction in microbial growth after 16 to 18 hrs by microbroth dilution method; assay type: functional; settings: ATCC 29212, time 16-18 hrs
# [19] = Toxicity in BALB/c mouse infected with methicillin-resistant Staphylococcus aureus ATCC 43300 assessed as damage in spleen at 50 to 200 mg/kg, sc administered every 24 hrs for 4 days by H&E staining based light microscopic analysis; assay type: organism-based; settings: in vivo, dose 50-200 mg/kg
# Staphylococcus aureus [20] = experiment: Antibacterial activity against Staphylococcus aureus ATCC 25923 assessed as reduction in microbial growth after 16 to 18 hrs by microbroth dilution method; assay type: functional; settings: time 16-18 hrs
# Staphylococcus aureus [21] = experiment: Antibacterial activity against methicillin resistant Staphylococcus aureus ATCC49025 assessed as reduction in microbial growth after 16 to 18 hrs by microbroth dilution method; assay type: functional; settings: time 16-18 hrs
# Cell membrane [22] = experiment: Induction of cell membrane permeabilization in methicillin resistant Staphylococcus aureus ATCC 43300 assessed as fluorescence intensity at 0.5 to 2 times of MIC measured after 30 mins by propidium iodide staining based fluorescence assay; assay type: subcellular
# Cell membrane [23] = experiment: Induction of cell membrane damage in methicillin resistant Staphylococcus aureus ATCC 43300 assessed as increase in ATP leakage […] at 0.5 times MIC measured every 30 mins for 6 hrs by Bactiter-glo assay; assay type: subcellular
# Staphylococcus aureus [24] = experiment: Synergistic antimicrobial activity against Staphylococcus aureus ATCC 43300 assessed as FICI at 0.5 times MIC after 24 hrs in presence of 16 ug/ml gentamicin by checkerboard assay; assay type: functional
# [25] = Toxicity in BALB/c mouse infected with methicillin-resistant Staphylococcus aureus ATCC 43300 assessed as damage in lung at 50 to 200 mg/kg, sc administered every 24 hrs for 4 days by H&E staining based light microscopic analysis; assay type: organism-based; settings: in vivo, dose 50-200 mg/kg
# Staphylococcus aureus [26] = experiment: Antibacterial activity against methicillin resistant Staphylococcus aureus ATCC 62202 assessed as reduction in microbial growth after 16 to 18 hrs by microbroth dilution method; assay type: functional; settings: time 16-18 hrs
# [27] = Cytotoxicity against mouse RAW264.7 cells assessed as cell viability at 10 ug/ml measured after 24 hrs by MTT assay; assay type: cell-based; settings: RAW264.7 cells, at 10 µg/mL, read-out: Activity
# Cell membrane [28] = experiment: Induction of cell membrane damage in Staphylococcus aureus ATCC 43300 at 2 times MIC after 90 mins by confocal laser scanning microscopy analysis
# Staphylococcus aureus [29] = experiment: Antibacterial activity against methicillin resistant Staphylococcus aureus ATCC513045 assessed as reduction in microbial growth after 16 to 18 hrs by microbroth dilution method; assay type: functional; settings: time 16-18 hrs
# Staphylococcus aureus [30] = experiment: Antibacterial activity against methicillin resistant Staphylococcus aureus ATCC48966 assessed as reduction in microbial growth after 16 to 18 hrs by microbroth dilution method; assay type: functional; settings: time 16-18 hrs
# [31] = Toxicity in BALB/c mouse infected with methicillin-resistant Staphylococcus aureus ATCC 43300 assessed as damage in liver at 50 to 200 mg/kg, sc administered every 24 hrs for 4 days by H&E staining based light microscopic analysis; assay type: organism-based; settings: in vivo, dose 50-200 mg/kg
# Staphylococcus aureus [32] = experiment: Inhibition of biofilm formation in methicillin-resistant Staphylococcus aureus ATCC 43300 at 1 times MIC incubated for 24 hrs by crystal violet staining based microplate reader assay; assay type: functional
smiles,measurement,setting,value
CC(C)=CCc1c(OCCF)cc(/C=C/c2ccc(F)cc2)c(C(=O)O)c1O,Activity,Cell membrane [1],Active
same,fractional inhibitory concentration index (FICI),Staphylococcus aureus [2],0.3125
same,fractional inhibitory concentration index (FICI),Staphylococcus aureus [3],1
same,Activity,Cell membrane [4],Active
same,Activity,Staphylococcus aureus [5],Active
same,MIC,Staphylococcus aureus [6],4 µg/mL
same,MIC,Staphylococcus aureus [7],4 µg/mL
same,Activity,Cell membrane [8],Dose-Dependent Effect
same,MIC,Staphylococcus aureus [9],4 µg/mL
same,MIC,Staphylococcus aureus [10],4 µg/mL
same,Activity,Cell membrane [11],Active
same,fractional inhibitory concentration index (FICI),Staphylococcus aureus [12],0.25
same,MIC,Staphylococcus aureus [13],4 µg/mL
same,Activity,Cell membrane [14],Active
same,Activity,L02,Toxic
same,Activity,Cell membrane [15],Active
same,fractional inhibitory concentration index (FICI),Staphylococcus aureus [16],1.125
same,Activity,Staphylococcus aureus [17],Active
same,fractional inhibitory concentration index (FICI),Staphylococcus aureus [18],0.75
same,MIC,Enterococcus faecalis,> 32 µg/mL
same,Activity,[19],Non-Toxic
same,MIC,Staphylococcus aureus [20],2 µg/mL
same,MIC,Staphylococcus aureus [21],4 µg/mL
same,Activity,Cell membrane [22],Dose-Dependent Effect
same,Activity,Cell membrane [23],Active
same,fractional inhibitory concentration index (FICI),Staphylococcus aureus [24],1.125
same,Activity,[25],Non-Toxic
same,MIC,Staphylococcus aureus [26],4 µg/mL
same,"viability at 24 h, 10 ug/ml",[27],> 60%
same,Activity,Cell membrane [28],Active
same,MIC,Staphylococcus aureus [29],4 µg/mL
same,MIC,Staphylococcus aureus [30],4 µg/mL
same,Activity,[31],Non-Toxic
same,inhibition (INH),Staphylococcus aureus [32],50%
